Experimental data from patent publication US8492376B2, “Heteroaryl-cyclohexyl-tetraazabenzo[e]azulenes” (Hoffmann-La Roche Inc., priority 2010, dated 2013).
Where a name gives a salt, the structure may show the parent alone.

What follows are molecules tested against T1, human V1a receptor (Homo sapiens, UniProt P37288) (assay: human V1a receptor binding studies (3H-Vasopressin, SPA beads)). Details: membranes from HEK293 cells transiently transfected with human V1a receptor, Ki calculated from IC50 by the Cheng-Prussoff equation, read-out: pKi (hV1a) (converted).
T1 construct: expressed in transfected cells; host or cells: HEK293 cells, transiently transfected; cell membranes
T1 sequence (P37288 whole entry): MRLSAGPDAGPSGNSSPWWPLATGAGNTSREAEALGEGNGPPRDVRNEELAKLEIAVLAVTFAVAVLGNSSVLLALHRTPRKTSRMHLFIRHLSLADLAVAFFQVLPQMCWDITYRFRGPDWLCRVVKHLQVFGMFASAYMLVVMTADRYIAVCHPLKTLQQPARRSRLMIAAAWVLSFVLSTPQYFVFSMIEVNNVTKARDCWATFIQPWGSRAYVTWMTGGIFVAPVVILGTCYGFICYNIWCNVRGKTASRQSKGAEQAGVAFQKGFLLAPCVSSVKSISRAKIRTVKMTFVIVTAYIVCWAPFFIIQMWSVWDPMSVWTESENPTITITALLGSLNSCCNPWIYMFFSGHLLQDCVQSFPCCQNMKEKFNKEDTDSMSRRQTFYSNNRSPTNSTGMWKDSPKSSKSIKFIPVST
Method in brief: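 Membranes from HEK293 cells transiently expressing human V1a were bound to yttrium silicate SPA beads in Tris/NaCl/KCl/CaCl2/MgCl2 buffer. 3H-vasopressin (4 nM stock) and compound in 2% DMSO incubated 1 h at room temperature. Non-specific binding was defined with cold vasopressin; IC50 was converted to Ki by Cheng-Prusoff.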

Structure (SMILES)	Ki [nM]
CN1Cc2cc(Cl)ccc2-n2c(nnc2[C@H]2CC[C@H](c3cccnc3F)CC2)C1 [Example 56, trans-8-Chloro-1-[4-(2-fluoro-pyridin-3-yl)-cyclohexyl]-5-methyl-5,6-dihydro-4H-2,3,5,10b-tetraaza-benzo[e]azulene]	8.13
CC(C)(C)OC(=O)N1Cc2cc(Cl)ccc2-n2c(nnc2[C@H]2CC[C@H](c3cccnc3Cl)CC2)C1 [Example 51, trans-8-Chloro-1-[4-(2-chloro-pyridin-3-yl)-cyclohexyl]-4H,6H-2,3,5,10b-tetraaza-benzo[e]azulene-5-carboxylic acid tert-butyl ester]	2.19
Cc1nccc([C@H]2CC[C@H](c3nnc4n3-c3ccc(Cl)cc3CN(C)C4)CC2)n1 [Example 68, trans-8-Chloro-5-methyl-1-[4-(2-methyl-pyrimidin-4-yl)-cyclohexyl]-5,6-dihydro-4H-2,3,5,10b-tetraaza-benzo[e]azulene]	126
Cc1cnc(C)c([C@H]2CC[C@H](c3nnc4n3-c3ccc(Cl)cc3CNC4)CC2)n1 [Example 79, trans-8-Chloro-1-[4-(3,6-dimethyl-pyrazin-2-yl)-cyclohexyl]-5,6-dihydro-4H-2,3,5,10b-tetraaza-benzo[e]azulene hydrochloride]	6.76
CN1Cc2cc(Cl)ccc2-n2c(nnc2[C@H]2CC[C@H](c3cccc(F)n3)CC2)C1 [Example 21, trans-8-Chloro-1-[4-(6-fluoro-pyridin-2-yl)-cyclohexyl]-5-methyl-5,6-dihydro-4H-2,3,5,10b-tetraaza-benzo[e]azulene]	1.82
